Reference: patent US20240226026A1, “BRANCHED TAIL LIPID COMPOUNDS AND COMPOSITIONS FOR INTRACELLULAR DELIVERY OF THERAPEUTIC AGENTS” (ModernaTX, Inc., priority 2021, published 2024)

Legend:
[1] = Apparent pKa of lipid nanoparticles; assay type: physicochemical
[2] = Encapsulation efficiency (% EE) of lipid nanoparticles; assay type: physicochemical; conditions: nanoparticles comprising the lipid
Protocol: For nanoparticle compositions including an RNA, a QUANT-IT™ RIBOGREEN® RNA assay (Invitrogen Corporation Carlsbad, CA) can be used to evaluate the encapsulation of an RNA by the nanoparticle composition. The samples are diluted to a concentration of approximately 5 μg/mL in a TE buffer solution (10 mM Tris-HCl, 1 mM EDTA, pH 7.5). 50 μL of the diluted samples are transferred to a polystyrene 96 well plate and either 50 μL of TE buffer or 50 μL of a 2% Triton X-100 solution is added to the wells. The plate is incubated at a temperature of 37° C. for 15 minutes. The RIBOGREEN® reagent is diluted 1:100 in TE buffer, and 100 μL of this solution is added to each well. The fluorescence intensity can be measured using a fluorescence plate reader (Wallac Victor 1420 Multilablel Counter; Perkin Elmer, Waltham, MA) at an excitation wavelength of, for example, about 480 nm and an emission wavelength of, for example, about 520 nm. The fluorescence values of the reagent blank are subtracted from that of each of the samples and the percentage of free RNA is determined by dividing the fluorescence intensity of the intact sample (without addition of Triton X-100) by the fluorescence value of the disrupted sample (caused by the addition of Triton X-100).
The efficiency of encapsulation of a therapeutic and/or prophylactic describes the amount of therapeutic and/or prophylactic that is encapsulated or otherwise associated with a lipid nanoparticle (e.g., an empty LNP or a loaded LNP) after preparation, relative to the initial amount provided. The encapsulation efficiency is desired to be high (e.g., close to 100%). The encapsulation efficiency may be measured, for example, by comparing the amount of therapeutic and/or prophylactic in a solution containing a loaded LNP before and after breaking up the loaded LNP with one or more organic solvents or detergents. Fluorescence may be used to measure the amount of free therapeutic and/or prophylactic (e.g., RNA) in a solution. For the loaded LNPs formulated with lipids of the disclosure, the encapsulation efficiency of a therapeutic and/or prophylactic is at least 50%, for example 50%, 55%, 60%, 65%, 70%, 75%, 80%, 85%, 90%, 91%, 92%, 93%, 94%, 95%, 96%, 97%, 98%, 99%, or 100%. In some embodiments, the encapsulation efficiency is at least 80%. In some embodiments, the encapsulation efficiency is at least 90%. In some embodiments, the encapsulation efficiency of the therapeutic and/or prophylactic agent is between 80% and 100%.
(§1) Lipid nanoparticles (e.g., empty LNPs or loaded LNPs) including DSPC as a phospholipid, cholesterol as a structural lipid, PL-II (e.g., PEG-1) as a PEG lipid, and a lipid according to Formula (I-1), (I), (I-A), (I-A1), (I-A2), (I-A3), or (I-A4) were prepared. In some embodiments, the lipid nanoparticles further included rhodamine-DOPE as a fluorescent lipid. Tables 2a, 2b, and 3 summarize the characteristics of the formulations.

[3] = Lipid nanoparticle surface hydrophobicity by Generalized Polarization by Laurdan (N-GP); assay type: physicochemical
Excerpt: Surface hydrophobicity of nanoparticles of the disclosure can be measured by Generalized Polarization by Laurdan (GPL). In this method, Laurdan, a fluorescent aminonaphthalene ketone lipid, is post-inserted into the nanoparticle surface and the fluorescence spectrum of Laurdan is collected to determine the normalized Generalized Polarization (N-GP). In some embodiments, nanoparticles formulated with lipids of the disclosure have a surface hydrophobicity expressed as N-GP of between about 0.5 and about 1.5. For example, in some embodiments, nanoparticles formulated with lipids of the disclosure have a surface hydrophobicity expressed as N-GP of about 0.5, about 0.6, about 0.7, about 0.8, about 0.9, about 1.0, about 1.1, about 1.2, about 1.3, about 1.4, or about 1.5. In some embodiments, nanoparticles formulated with lipids of the disclosure have a surface hydrophobicity expressed as N-GP of about 1.0 or about 1.1.

[4] = system: CD-1 mice; test: Expression of hEPO induced by LNPs (mRNA encoding hEPO) administered to mice; assay type: in vivo; conditions: serum, 6 h after intravenous injection; for Avg. hEPO Concentration (mIU/mL): Table 4b
Protocol: In some embodiments, hEPO concentrations were determined using an […] (ELLA) Simple Plex Assay (ProteinSimple) with a Human Erythroprotein cartridge. Standards for this assay are calibrated according to the 2. IRP WHO preparation. Nanoparticle compositions including mRNA are useful in the evaluation of the efficacy and usefulness of various formulations for the delivery of therapeutic and/or prophylactics. Higher levels of protein expression induced by administration of a composition including an mRNA will be indicative of higher mRNA translation and/or nanoparticle composition mRNA delivery efficiencies. As the non-RNA components are not thought to affect translational machineries themselves, a higher level of protein expression is likely indicative of a higher efficiency of delivery of the therapeutic and/or prophylactic by a given nanoparticle composition relative to other nanoparticle compositions or the absence thereof.
To assess potency of expression of lipids of the disclosure, the protein expression (hEPO) following administration of a nanoparticle comprising a lipid of the disclosure (e.g., a loaded LNP) to mice was measured.
Lipid nanoparticles (LNPs) including DSPC as a phospholipid, cholesterol as a structural lipid, PL-II (e.g., PEG-1) as a PEG lipid, a lipid according to Formula (I-1), (I), (I-A), (I-A1), (I-A2), (I-A3), or (I-A4), and an mRNA encoding hEPO were intravenously administered to CD-1 mice. The concentration of hEPO in serum was tested at 6 h after injection.

[5] = Particle size (diameter) and polydispersity index of lipid nanoparticles; assay type: physicochemical; conditions: nanoparticles comprising the lipid
Protocol: A Zetasizer Nano ZS (Malvern Instruments Ltd, Malvern, Worcestershire, UK) can be used to determine the particle size, the polydispersity index (PDI) and the zeta potential of the nanoparticle compositions in 1×PBS in determining particle size and 15 mM PBS in determining zeta potential.
Lipid nanoparticles (e.g., empty LNPs or loaded LNPs) may be characterized by a variety of methods. For example, microscopy (e.g., transmission electron microscopy or scanning electron microscopy) may be used to examine the morphology and size distribution of a nanoparticle composition. Dynamic light scattering or potentiometry (e.g., potentiometric titrations) may be used to measure zeta potentials. Dynamic light scattering may also be utilized to determine particle sizes. Instruments such as the Zetasizer Nano ZS (Malvern Instruments Ltd, Malvern, Worcestershire, UK) may also be used to measure multiple characteristics of a nanoparticle composition, such as particle size, polydispersity index, and zeta potential.
as §1

SMILES	Avg. hEPO Concentration (mIU/mL) ([4]; ELLA Simple Plex Assay)	other results
CCCCCCCCC(CCCCCCCC)OC(=O)CCCCCCCN(CCCCCCCC(=O)OCCC(CCCC)CCCC)CCCNc1n[s+]([O-])nc1NC (stereo not drawn) [Compound 1]	–	Apparent pKa ([1]; Table 2a, nanoparticles comprising the lipid): 7.187; % EE ([2]; Table 2a): 98.1%; % EE ([2]; Table 3): 97.9%; Lipid nanoparticle surface hydrophobicity (N-GP*) ([3]; Table 2a, Laurdan, higher N-GP indicates a less polar surface): 1.07; Avg. hEPO Concentration (mIU/mL) ± Avg. SD ([4]; Table 4a): 7.26E+06 ± 1.51E+05 mIU/mL; PDI ([5]; Table 2a): 0.342; Diameter (nm) ([5]; Table 2a, DSPC, cholesterol, PEG lipid): 69.7 nm; Diameter (nm) ([5]; Table 3): 63.3 nm; PDI ([5]; Table 3): 0.083
CCCCCCCCC(CCCCCCCC)OC(=O)CCCCCCCN(CCCCCCCC(=O)OCCC(CCCC)CCCC)CCCNc1noc(N)n1 [Compound 2]	–	Apparent pKa 95% CI ([1]; Table 2b, 95% confidence interval): 6.437 to 6.559; % EE ([2]; Table 2b): 99.2%; % EE ([2]; Table 3): 97.6%; LNP surface hydrophobicity (N-GP*) ([3]; Table 2b, nanoparticles comprising the lipid): 1.21; Avg. hEPO Concentration (mIU/mL)* ± Avg. SD ([4]; Table 4a, ELLA Simple Plex Assay): 3.38E+05 ± 9.49E+03 mIU/mL; Diameter (nm) ([5]; Table 2b): 68.6 nm; PDI ([5]; Table 2b): 0.214; Diameter (nm) ([5]; Table 3): 52.6 nm; PDI ([5]; Table 3): 0.163
CCCCCCCCC(CCCCCCCC)OC(=O)CCCCCCCN(CCCCCCCC(=O)OCCC(CCCC)CCCC)CCCNC(C)=O [Compound 29]	7.06E+05	–
CCCCCCCCC(CCCCCCCC)OC(=O)CCCCCCCN(CCCCCCCC(=O)OCCC(CCCC)CCCC)CCCNC(=O)CC [Compound 30]	4.73E+06	–
CCCCCCCCC(CCCCCCCC)OC(=O)CCCCCCCN(CCCCCCCC(=O)OCCC(CCCC)CCCC)CCCNC(=O)C(C)C [Compound 31]	2.31E+06	–
CCCCCCCCC(CCCCCCCC)OC(=O)CCCCCCCN(CCCCCCCC(=O)OCCC(CCCC)CCCC)CCCNC(=O)C(C)(C)C [Compound 32]	1.54E+06	–
CCCCCCCCC(CCCCCCCC)OC(=O)CCCCCCCN(CCCCCCCC(=O)OCCC(CCCC)CCCC)CCCNC(=O)c1ccccc1 [Compound 33]	1.78E+05	–
CCCCCCCCC(CCCCCCCC)OC(=O)CCCCCCCN(CCCCCCCC(=O)OCCC(CCCC)CCCC)CCCNC(=O)C(C)O (stereo not drawn) [Compound 35]	1.54E+05	–
CCCCCCCCC(CCCCCCCC)OC(=O)CCCCCCCN(CCCCCCCC(=O)OCCC(CCCC)CCCC)CCCNC(=O)C1(C)CCC1 [Compound 36]	1.41E+06	–
CCCCCCCCC(CCCCCCCC)OC(=O)CCCCCCCN(CCCCCCCC(=O)OCCC(CCCC)CCCC)CCCNC(=O)C1(CC)CC1 [Compound 37]	1.39E+06	–
CCCCCCCCC(CCCCCCCC)OC(=O)CCCCCCCN(CCCCCCCC(=O)OCCC(CCCC)CCCC)CCCNC(=O)COC [Compound 38]	6.13E+05	–
CCCCCCCCC(CCCCCCCC)OC(=O)CCCCCCCN(CCCCCCCC(=O)OCCC(CCCC)CCCC)CCCNC(=O)C1CC1 [Compound 39]	2.93E+06	–
CCCCCCCCC(CCCCCCCC)OC(=O)CCCCCCCN(CCCCCCCC(=O)OCCC(CCCC)CCCC)CCCNC(=O)C1CCOCC1 [Compound 40]	2.16E+06	–
CCCCCCCCC(CCCCCCCC)OC(=O)CCCCCCCN(CCCCCCCC(=O)OCCC(CCCC)CCCC)CCCNC(=O)C1CCCCC1 [Compound 41]	1.31E+06	–
CCCCCCCCC(CCCCCCCC)OC(=O)CCCCCCCN(CCCCCCCC(=O)OCCC(CCCC)CCCC)CCCNC(=O)C12CCC(CC1)CC2 [Compound 42]	1.02E+06	–
CCCCCCCCC(CCCCCCCC)OC(=O)CCCCCCCN(CCCCCCCC(=O)OCCC(CCCC)CCCC)CCCNC(=O)C1CCCO1 (stereo not drawn) [Compound 43]	2.23E+06	–
CCCCCCCCC(CCCCCCCC)OC(=O)CCCCCCCN(CCCCCCCC(=O)OCCC(CCCC)CCCC)CCCNC(=O)C1CCOC1 (stereo not drawn) [Compound 44]	1.02E+06	–
CCCCCCCCC(CCCCCCCC)OC(=O)CCCCCCCN(CCCCCCCC(=O)OCCC(CCCC)CCCC)CCCNC(=O)CNC(C)=O [Compound 46]	3.88E+03	–
CC#CC(=O)NCCCN(CCCCCCCC(=O)OCCC(CCCC)CCCC)CCCCCCCC(=O)OC(CCCCCCCC)CCCCCCCC [Compound 47]	1.17E+06	–
CCCCCCCCC(CCCCCCCC)OC(=O)CCCCCCCN(CCCCCCCC(=O)OCCC(CCCC)CCCC)CCCNC(=O)C1CCN(C(C)=O)C1 (stereo not drawn) [Compound 48]	1.47E+02	–
CCCCCCCCC(CCCCCCCC)OC(=O)CCCCCCCN(CCCCCCCC(=O)OCCC(CCCC)CCCC)CCCNC(=O)C#CC1CC1 [Compound 50]	2.60E+05	–
CCCCCCCCC(CCCCCCCC)OC(=O)CCCCCCCN(CCCCCCCC(=O)OCCC(CCCC)CCCC)CCCNC(=O)C1(C)CCOC1 (stereo not drawn) [Compound 55]	2.61E+06	–
CCCCCCCCC(CCCCCCCC)OC(=O)CCCCCCCN(CCCCCCCC(=O)OCCC(CCCC)CCCC)CCCNC(=O)C1(C)CCCO1 (stereo not drawn) [Compound 56]	1.17E+04	–
CCCCCCCCC(CCCCCCCC)OC(=O)CCCCCCCN(CCCCCCCC(=O)OCCC(CCCC)CCCC)CCCNC(=O)C1(C)CCCCC1 [Compound 58]	4.17E+05	–
CCCCCCCCC(CCCCCCCC)OC(=O)CCCCCCCN(CCCCCCCC(=O)OCCC(CCCC)CCCC)CCCNC=O [Compound 59]	3.27E+05	–
CCCCCCCCC(CCCCCCCC)OC(=O)CCCCCCCN(CCCCCCCC(=O)OCCC(CCCC)CCCC)CCCNC(=O)C1CN(C(C)=O)C1 [Compound 60]	2.10E+02	–
